Assay results as given in PubChem BioAssay AID1745844 (Carcinogenic Potency Database (CPDB), 2022).
Several values for one entry are separate records, joined by “and”; a condition that tells them apart may be missing. Identical values can stand only once. Activity calls are given as the source filed them. The rule behind the calls is not given here.

Test system: rodent lifetime carcinogenesis bioassay, tumor incidence TD50
Assay: carcinogenic potency in animals, long-term in vivo studies, CPDB compilation (AID 1745844)

ClC1=C(Cl)C2(Cl)C3C(Cl)C(Cl)CC3C1(Cl)C2(Cl)Cl (configuration not stated)
TD50 (mouse, strain B6C3F1, females, in feed, site: any site (literature study), lesion: several types, types named in the paper, dosed 80 weeks, study length 90 weeks): 5.16 mg/kg/day | TD50 (mouse, strain B6C3F1, females, in feed, site: liver, lesion: hepatocellular adenoma + hepatocellular carcinoma + neoplastic nodule, dosed 80 weeks, study length 90 weeks): 4.89 mg/kg/day | TD50 (mouse, strain B6C3F1, females, in feed, site: liver, lesion: hepatocellular carcinoma, dosed 80 weeks, study length 89 weeks): 5.28 mg/kg/day | TD50 (mouse, strain B6C3F1, females, in feed, site: liver, lesion: hepatocellular carcinoma, dosed 80 weeks, study length 90 weeks): 4.89 mg/kg/day | TD50 (mouse, strain B6C3F1, females, in feed, site: lung, lesion: alveolar/bronchiolar adenoma + alveolar/bronchiolar carcinoma, dosed 80 weeks, study length 90 weeks): 228 mg/kg/day | TD50 (mouse, strain B6C3F1, males, in feed, site: any site (literature study), lesion: several types, types named in the paper, dosed 80 weeks, study length 90 weeks): 2.31 mg/kg/day | TD50 (mouse, strain B6C3F1, males, in feed, site: liver, lesion: hepatocellular adenoma + hepatocellular carcinoma + neoplastic nodule, dosed 80 weeks, study length 90 weeks): 2.15 mg/kg/day | TD50 (mouse, strain B6C3F1, males, in feed, site: liver, lesion: hepatocellular adenoma, dosed 60 weeks, study length 61 weeks): 0.903 mg/kg/day | carcinogen call (mouse, strain B6C3F1, males, in feed, site: liver, lesion: hepatocellular adenoma, dosed 60 weeks, study length 68 weeks): positive | TD50 (mouse, strain B6C3F1, males, in feed, site: liver, lesion: hepatocellular adenoma, dosed 60 weeks, study length 72 weeks): 0.727 mg/kg/day | carcinogen call (mouse, strain B6C3F1, males, in feed, site: liver, lesion: hepatocellular adenoma, dosed 68 weeks, study length 68 weeks): positive | TD50 (mouse, strain B6C3F1, males, in feed, site: liver, lesion: hepatocellular adenoma, dosed 72 weeks, study length 72 weeks): 1.96 mg/kg/day | TD50 (mouse, strain B6C3F1, males, in feed, site: liver, lesion: hepatocellular carcinoma, dosed 60 weeks, study length 61 weeks): 1.91 mg/kg/day | TD50 (mouse, strain B6C3F1, males, in feed, site: liver, lesion: hepatocellular carcinoma, dosed 60 weeks, study length 68 weeks): 1.49 mg/kg/day | TD50 (mouse, strain B6C3F1, males, in feed, site: liver, lesion: hepatocellular carcinoma, dosed 60 weeks, study length 72 weeks): 2.67 mg/kg/day | TD50 (mouse, strain B6C3F1, males, in feed, site: liver, lesion: hepatocellular carcinoma, dosed 68 weeks, study length 68 weeks): 0.878 mg/kg/day | TD50 (mouse, strain B6C3F1, males, in feed, site: liver, lesion: hepatocellular carcinoma, dosed 72 weeks, study length 72 weeks): 2.96 mg/kg/day | TD50 (mouse, strain B6C3F1, males, in feed, site: liver, lesion: hepatocellular carcinoma, dosed 80 weeks, study length 89 weeks): 2.48 mg/kg/day | TD50 (mouse, strain B6C3F1, males, in feed, site: liver, lesion: hepatocellular carcinoma, dosed 80 weeks, study length 90 weeks): 2.15 mg/kg/day | TD50 (mouse, strain B6C3F1, males, in feed, site: liver, lesion: several types, types named in the paper, dosed 60 weeks, study length 61 weeks): 0.583 mg/kg/day | carcinogen call (mouse, strain B6C3F1, males, in feed, site: liver, lesion: several types, types named in the paper, dosed 60 weeks, study length 68 weeks): positive | carcinogen call (mouse, strain B6C3F1, males, in feed, site: liver, lesion: several types, types named in the paper, dosed 68 weeks, study length 68 weeks): positive | TD50 (mouse, strain B6C3F1, males, in feed, site: liver, lesion: several types, types named in the paper, dosed 72 weeks, study length 72 weeks): 1.68 mg/kg/day | TD50 (mouse, strain B6C3F1, males, in feed, site: lung, lesion: alveolar/bronchiolar adenoma + alveolar/bronchiolar carcinoma, dosed 80 weeks, study length 90 weeks): 656 mg/kg/day | TD50 (mouse, strain C57BL/10J, males, in feed, site: liver, lesion: several types, types named in the paper, dosed 104 weeks, study length 104 weeks): 13.1 mg/kg/day | TD50 (mouse, strain Charles River CD1, females, in feed, site: liver, lesion: hepatoma, dosed 78 weeks, study length 78 weeks): 71.8 mg/kg/day | TD50 (mouse, strain Charles River CD1, females, in feed, site: liver, lesion: nodular hyperplasia, dosed 78 weeks, study length 78 weeks): 1.78 mg/kg/day | TD50 (mouse, strain Charles River CD1, males, in feed, site: liver, lesion: nodular hyperplasia, dosed 78 weeks, study length 78 weeks): 1.45 mg/kg/day | TD50 (mouse, strain D2B6F1 mice, males, in feed, site: liver, lesion: hepatocellular adenoma, dosed 60 weeks, study length 61 weeks): 2.33 mg/kg/day | TD50 (mouse, strain D2B6F1 mice, males, in feed, site: liver, lesion: hepatocellular adenoma, dosed 69 weeks, study length 69 weeks): 1.29 mg/kg/day | TD50 (mouse, strain D2B6F1 mice, males, in feed, site: liver, lesion: hepatocellular adenoma, dosed 87 weeks, study length 87 weeks): 4.98 mg/kg/day | TD50 (mouse, strain D2B6F1 mice, males, in feed, site: liver, lesion: hepatocellular carcinoma, dosed 60 weeks, study length 61 weeks): 6.09 mg/kg/day | TD50 (mouse, strain D2B6F1 mice, males, in feed, site: liver, lesion: hepatocellular carcinoma, dosed 69 weeks, study length 69 weeks): 3.31 mg/kg/day | TD50 (mouse, strain D2B6F1 mice, males, in feed, site: liver, lesion: hepatocellular carcinoma, dosed 87 weeks, study length 87 weeks): 5.21 mg/kg/day | TD50 (mouse, strain D2B6F1 mice, males, in feed, site: liver, lesion: several types, types named in the paper, dosed 60 weeks, study length 61 weeks): 1.93 mg/kg/day | TD50 (mouse, strain D2B6F1 mice, males, in feed, site: liver, lesion: several types, types named in the paper, dosed 69 weeks, study length 69 weeks): 1.03 mg/kg/day | TD50 (mouse, strain D2B6F1 mice, males, in feed, site: liver, lesion: several types, types named in the paper, dosed 87 weeks, study length 87 weeks): 3.83 mg/kg/day | TD50 (mouse, strain ICR, females, in feed, site: liver, lesion: hepatocellular adenoma, dosed 106 weeks, study length 106 weeks): 19.3 mg/kg/day | TD50 (mouse, strain ICR, females, in feed, site: liver, lesion: hepatocellular carcinoma, dosed 106 weeks, study length 106 weeks): 60 mg/kg/day | TD50 (mouse, strain ICR, females, in feed, site: liver, lesion: several types, types named in the paper, dosed 106 weeks, study length 106 weeks): 13.4 mg/kg/day | TD50 (mouse, strain ICR, males, in feed, site: all sites, lesion: hemangioma, dosed 106 weeks, study length 106 weeks): 4.01 mg/kg/day | TD50 (mouse, strain ICR, males, in feed, site: liver, lesion: hepatocellular adenoma, dosed 106 weeks, study length 106 weeks): 2.98 mg/kg/day | TD50 (mouse, strain ICR, males, in feed, site: liver, lesion: hepatocellular carcinoma, dosed 106 weeks, study length 106 weeks): 7.38 mg/kg/day | TD50 (mouse, strain ICR, males, in feed, site: liver, lesion: several types, types named in the paper, dosed 106 weeks, study length 106 weeks): 1.71 mg/kg/day | TD50 (rat, strain Fischer 344, females, in feed, site: mammary gland, lesion: fibroadenoma, dosed 130 weeks, study length 130 weeks): 0.32 mg/kg/day | TD50 (rat, strain Fischer 344, males, in feed, site: liver, lesion: hepatocellular adenoma, dosed 130 weeks, study length 130 weeks): 15.3 mg/kg/day | TD50 (rat, strain Osborne-Mendel, females, in feed, site: any site (literature study), lesion: several types, types named in the paper, dosed 80 weeks, study length 109 weeks): 18.4 mg/kg/day (inactive) | TD50 (rat, strain Osborne-Mendel, females, in feed, site: liver, lesion: hepatocellular adenoma + hepatocellular carcinoma + neoplastic nodule, dosed 80 weeks, study length 109 weeks): 121 mg/kg/day | TD50 (rat, strain Osborne-Mendel, females, in feed, site: uterus, lesion: adenocarcinoma + sarcoma, dosed 80 weeks, study length 109 weeks): 101 mg/kg/day (inactive) | TD50 (rat, strain Osborne-Mendel, males, in feed, site: all sites, lesion: fibrous histiocytoma, dosed 80 weeks, study length 109 weeks): 42.5 mg/kg/day and 60.4 mg/kg/day (inactive) | TD50 (rat, strain Osborne-Mendel, males, in feed, site: any site (literature study), lesion: several types, types named in the paper, dosed 80 weeks, study length 109 weeks): 21.6 mg/kg/day | TD50 (rat, strain Osborne-Mendel, males, in feed, site: thyroid gland, lesion: follicular-cell adenoma + follicular-cell carcinoma, dosed 80 weeks, study length 109 weeks): 41.6 mg/kg/day (inactive)

CN1CCCC1=O
TD50 (mouse, strain B6C3F1, females, in feed, site: any site (literature study), lesion: benign tumor, dosed 78 weeks, study length 78 weeks): 3440 mg/kg/day | TD50 (mouse, strain B6C3F1, females, in feed, site: any site (literature study), lesion: malignant tumor, dosed 78 weeks, study length 78 weeks): 14900 mg/kg/day | TD50 (mouse, strain B6C3F1, females, in feed, site: liver, lesion: hepatocellular adenoma, dosed 78 weeks, study length 78 weeks): 3320 mg/kg/day | TD50 (mouse, strain B6C3F1, females, in feed, site: liver, lesion: hepatocellular carcinoma, dosed 78 weeks, study length 78 weeks): 7330 mg/kg/day | TD50 (mouse, strain B6C3F1, males, in feed, site: any site (literature study), lesion: benign tumor, dosed 78 weeks, study length 78 weeks): 1630 mg/kg/day | TD50 (mouse, strain B6C3F1, males, in feed, site: any site (literature study), lesion: malignant tumor, dosed 78 weeks, study length 78 weeks): 2270 mg/kg/day | TD50 (mouse, strain B6C3F1, males, in feed, site: liver, lesion: hepatocellular adenoma, dosed 78 weeks, study length 78 weeks): 1760 mg/kg/day | TD50 (mouse, strain B6C3F1, males, in feed, site: liver, lesion: hepatocellular carcinoma, dosed 78 weeks, study length 78 weeks): 1480 mg/kg/day | TD50 (mouse, strain B6C3F1, males, in feed, site: lung, lesion: adenoma, dosed 78 weeks, study length 78 weeks): 4080 mg/kg/day | carcinogen call (rat, strain Charles River CD (Sprague-Dawley), females, in feed, site: any site (literature study), lesion: several types, types named in the paper, dosed 104 weeks, study length 104 weeks): negative (inactive) | carcinogen call (rat, strain Charles River CD (Sprague-Dawley), females, in feed, site: liver, lesion: several types, types named in the paper, dosed 104 weeks, study length 104 weeks): negative (inactive) | carcinogen call (rat, strain Charles River CD (Sprague-Dawley), females, inhaled, site: liver, lesion: one or several types, types not named, dosed 104 weeks, study length 104 weeks): negative (inactive) | TD50 (rat, strain Charles River CD (Sprague-Dawley), males, in feed, site: any site (literature study), lesion: several types, types named in the paper, dosed 104 weeks, study length 104 weeks): 6060 mg/kg/day (inactive) | TD50 (rat, strain Charles River CD (Sprague-Dawley), males, in feed, site: liver, lesion: several types, types named in the paper, dosed 104 weeks, study length 104 weeks): 58500 mg/kg/day (inactive) | carcinogen call (rat, strain Charles River CD (Sprague-Dawley), males, inhaled, site: liver, lesion: one or several types, types not named, dosed 104 weeks, study length 104 weeks): negative (inactive)

CCCNC(=O)NS(=O)(=O)c1ccc(Cl)cc1
carcinogen call (mouse, strain B6C3F1, females, in feed, site: any site (literature study), lesion: several types, types named in the paper, dosed 104 weeks, study length 104 weeks): negative (inactive) | TD50 (mouse, strain B6C3F1, females, in feed, site: lung, lesion: alveolar/bronchiolar adenoma + alveolar/bronchiolar carcinoma, dosed 104 weeks, study length 104 weeks): 1440 mg/kg/day | carcinogen call (mouse, strain B6C3F1, males, in feed, site: any site (literature study), lesion: several types, types named in the paper, dosed 104 weeks, study length 104 weeks): negative (inactive) | carcinogen call (rat, strain Fischer 344, females, in feed, site: any site (literature study), lesion: several types, types named in the paper, dosed 104 weeks, study length 104 weeks): negative (inactive) | carcinogen call (rat, strain Fischer 344, males, in feed, site: any site (literature study), lesion: several types, types named in the paper, dosed 103 weeks, study length 103 weeks): negative (inactive)
